The test deals with T1, IRAK-4 (Homo sapiens, UniProt Q9NWZ3).
T1 sequence (Q9NWZ3 1-460): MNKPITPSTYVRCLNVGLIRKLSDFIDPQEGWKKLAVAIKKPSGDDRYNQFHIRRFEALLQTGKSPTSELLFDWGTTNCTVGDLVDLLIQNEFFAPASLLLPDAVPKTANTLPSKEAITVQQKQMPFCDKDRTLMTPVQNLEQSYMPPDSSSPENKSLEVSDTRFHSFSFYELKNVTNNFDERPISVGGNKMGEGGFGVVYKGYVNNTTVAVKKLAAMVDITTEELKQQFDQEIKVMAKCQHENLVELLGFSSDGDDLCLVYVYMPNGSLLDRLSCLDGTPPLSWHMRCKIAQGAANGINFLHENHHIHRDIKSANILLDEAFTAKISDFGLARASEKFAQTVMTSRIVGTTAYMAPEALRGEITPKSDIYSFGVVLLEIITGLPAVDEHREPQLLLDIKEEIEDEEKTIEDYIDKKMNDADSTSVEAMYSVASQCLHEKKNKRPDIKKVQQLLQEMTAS
Put plainly: IRAK-4 ELISA, PBMC degradation. The class given is cell-based. On the set-up: endogenous in cells; host or cells: PBMC. The settings on record: treated overnight. In a few lines:
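ELISA quantification of cellular IRAK-4 after compound treatment overnight; PBMC were plated at 2×10^6/ml, OCI-Ly10 at 1×10^6/ml.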
In general terms: ELISA stands for enzyme-linked immunosorbent assay.

Turning to `CC(C)Oc1nc2nn(C3CCN(CC4(F)CN(c5ccc6c(c5)C(=O)N(C5CCC(=O)NC5=O)C6=O)C4)CC3)cc2cc1NC(=O)c1cnn2cccnc12` (stereo not drawn) [Example 219], the DC50 lay in the range of 5 to 10 nM; the Dmax was 80 to 90%; the “PBMC DC90” value was “C (C represents a DC90 value ≥25.0 nM and <50 nM)”.

Consider `CC(C)(C)Oc1nc2nn(C3CCN(CC4(F)CN(c5ccc6c(c5)C(=O)N(C5CCC(=O)NC5=O)C6=O)C4)CC3)cc2cc1NC(=O)c1cnn2cccnc12` (stereo not drawn) [Example 220], for which the DC50 fell in the range of 1 to 5 nM; the Dmax lay in the range of 80 to 90%; the “PBMC DC90” value is “C (C represents a DC90 value ≥25.0 nM and <50 nM)”.

As to `O=C1CCC(N2C(=O)c3cc(F)c(N4CC(CN5CCC(n6cc7cc(NC(=O)c8cnn9cccnc89)c(OCC8CC8)cc7n6)CC5)C4)cc3C2=O)C(=O)N1` (stereo not drawn) [Example 221], the 50% degradation concentration (DC50) is 1 to 5 nM; the Dmax is < 70%; the “PBMC DC90” value was “B (B represents a DC90 value ≥10.0 nM and <25.0 nM)”.

As for `C[C@@H](Oc1cc2nn(C3CCN(CC4(F)CN(c5ccc6c(c5)C(=O)N(C5CCC(=O)NC5=O)C6=O)C4)CC3)cc2cc1NC(=O)c1cnn2cccnc12)C1CC1` (stereo partly drawn) [Example 223], the DC50 lay within 1 to 5 nM; the maximal degradation (Dmax) was 70 to 80%; the “PBMC DC90” value is “C (C represents a DC90 value ≥25.0 nM and <50 nM)”.

On to `O=C1CCC(N2C(=O)c3ccc(N4CC[C@H](N5CCC(n6cc7cc(NC(=O)c8cnn9cccnc89)c(OCC8CC8)cc7n6)CC5)C4)cc3C2=O)C(=O)N1` (stereo partly drawn) [Example 225], for which the DC50 fell in the range of 1 to 5 nM; the Dmax is 80 to 90%; the “PBMC DC90” value was “B (B represents a DC90 value ≥10.0 nM and <25.0 nM)”.

Turning to `O=C1CCC(N2C(=O)c3ccc(N4CC5(CCC(N6CCC(n7cc8cc(NC(=O)c9cnn%10cccnc9%10)c(OCC9CC9)cc8n7)CC6)CC5)C4)cc3C2=O)C(=O)N1` (stereo not drawn) [Example 227], the half-maximal degradation concentration (DC50) was in the range of 1 to 5 nM, the Dmax lay in the range of 80 to 90% and the “PBMC DC90” value was “A (A represents a DC90 value <10.0 nM)”.

With `CC1(N2CCC(n3cc4cc(NC(=O)c5cnn6cccnc56)c(OCC5CC5)cc4n3)CC2)CN(c2ccc3c(c2)C(=O)N(C2CCC(=O)NC2=O)C3=O)C1` (stereo not drawn) [Example 228], the DC50 was 1 to 5 nM; the maximal degradation (Dmax) is 80 to 90%; the “PBMC DC90” value is “C (C represents a DC90 value ≥25.0 nM and <50 nM)”.

Regarding `O=C1CCC(N2C(=O)c3cc(F)c(N4CC(F)(CN5CCC(n6cc7cc(NC(=O)c8cnn9cccnc89)c(OCC8CC8)cc7n6)CC5)C4)cc3C2=O)C(=O)N1` (stereo not drawn) [Example 229], the DC50 lay in the range of 5 to 10 nM; the maximal degradation (Dmax) lay within 80 to 90%; the “PBMC DC90” value was “B (B represents a DC90 value ≥10.0 nM and <25.0 nM)”.

Regarding `CC(C)(C1CCN(c2ccc3c(c2)C(=O)N(C2CCC(=O)NC2=O)C3=O)CC1)N1CCC(n2cc3cc(NC(=O)c4cnn5cccnc45)c(OCC4CC4)cc3n2)CC1` (stereo not drawn) [Example 230], the DC50 is 1 to 5 nM, the Dmax was ≥ 90% and the “PBMC DC90” value is on record as “D (D represents a DC90 value ≥50 nM)”.

On to `O=C1CCC(N2C(=O)c3ccc(N4CC(F)(CN5CCC(n6cc7cc(NC(=O)c8cnn9cccnc89)c(OCC(F)F)cc7n6)CC5)C4)cc3C2=O)C(=O)N1` (stereo not drawn) [Example 232], for which the 50% degradation concentration (DC50) was 1 to 5 nM; the “PBMC DC90” value was “C (C represents a DC90 value ≥25.0 nM and <50 nM)”; the “PBMC Dmax” value is “B (B represents a Dmax value ≥80 and <90)”.

Turning to `O=C1CCC(N2C(=O)c3ccc(N4CC(F)(CN5CCC(n6cc7cc(NC(=O)c8cnn9ccc(N%10CCOCC%10)nc89)c(OCC8CC8)cc7n6)CC5)C4)cc3C2=O)C(=O)N1` (stereo not drawn) [Example 233], the DC50 is 5 to 10 nM; the Dmax was in the range of 80 to 90%; the “PBMC DC90” value is “C (C represents a DC90 value ≥25.0 nM and <50 nM)”.

As for `COC1(CN2CCC(n3cc4cc(NC(=O)c5cnn6cccnc56)c(OCC5CC5)cc4n3)CC2)CN(c2ccc3c(c2)C(=O)N(C2CCC(=O)NC2=O)C3=O)C1` (stereo not drawn) [Example 234], the DC50 is < 1 nM, the Dmax lay in the range of 80 to 90% and the “PBMC DC90” value was “A (A represents a DC90 value <10.0 nM)”.

Usually DC50 stands for the concentration giving 50% degradation. A higher DC50 goes with degradation only at high concentration. Broadly, the Dmax is the largest share of the target that was removed. A low value points to shallow degradation.

Source of the values: patent US20230099344A1, “COMPOUNDS AND METHODS FOR THE TARGETED DEGRADATION OF IRAK-4” (Arvinas Operations, Inc., priority 2021, published 2023).
